EP4567040A1, “CRYSTAL FORM OF FUSED TRICYCLIC DERIVATIVE AND PREPARATION METHOD” (Jiangsu Hengrui Pharmaceuticals Co., Ltd., priority 2022, dated 2024)

Test system: DPX2 (HepG2 cells were stably transfected with the human PXR gene and the fluorescent reporter gene) cells
Test: Cell viability in the PXR induction assay (CellTiter-Fluor)
Assay type: cell-based
Procedure: • 1. The potential of the test compounds to induce the activity of drug metabolism enzymes through in vitro activation of PXR was evaluated. […] […] Experimental procedures • 3.1. Preparation for plating • 1) 50 mL of FBS was added to 450 mL of cell culture medium. • 2) DPX2 cells were cultured in a T-75 culture flask in a 37 °C, 5% CO2 incubator with 95% relative humidity. When covering 80-90% of the bottom of the culture flask, the cells were digested. • 3) The top layer of cells cultured in the T-75 culture flask was washed with 8 mL of PBS, and the PBS was pipetted off. The cells were digested with 3 mL of pancreatin at 37 °C for about 5 min or until they were floating in the pancreatin. 10 mL (excessive) of a serum-containing culture medium was added to neutralize the pancreatin. • 4) The cell suspension was transferred to a conical-bottomed centrifuge tube and centrifuged at 120 g for 10 min. The cells were suspended in the plating culture medium, and the concentration was adjusted to 4 × 10^5 cells/mL. The diluted cells were added to a 96-well cell culture plate at 100 µL/well. The culture plate was placed in an incubator and incubated at 37 °C for 24 h before the PXR activation experiment. • 3.2. […] […] The final concentration of DMSO was 0.1%. 1 µL of DMSO was added to a well containing 1 mL of pre-incubated culture medium as a solvent control. • 2) The cell culture plate was taken out of the incubator, and the culture medium was discarded. The test compounds and the positive compound were added to appropriate wells at 100 µL/well, and each group was tested in duplicate. The cell plate was placed in an incubator and incubated for 24 h. • 3.3. Quantification of PXR activation • 1) After […] of compound treatment, PXR activation was quantified for the culture. • 2) The CellTiter-Fluor™ cell viability assay kit and the One-Glo Luciferase reagent were equilibrated to room temperature. The GF-AFC (10 µL) substrate was added to Assay Buffer (10 mL) to form a 2× reagent, and the reagent was then diluted to 1× with 10 mL of PBS; the ONE-Glo substrate was added to the ONE-Glo Luciferase Assay buffer. • 3) The cell culture plate was taken out of the incubator, and the culture medium in each well was discarded. The plate was washed twice with PBS. The 1× CellTiter-Fluor™ reagent was added to a sterilized reagent reservoir, and 50 µL was transferred to each well using a multi-channel pipette. The plate was incubated at 37 °C for 30 min. • 4) The 96-well cell plate was taken out of the incubator, and the fluorescence in each well was measured using a microplate reader put in the fluorescence mode at an excitation wavelength of 400 nm and an emission wavelength of 505 nm. • 5) The ONE-Glo reagent was poured into a reagent reservoir, and then 50 µL was transferred to each well using a multi-channel pipette. The reagent was gently and well mixed, and the mixture was incubated and well mixed at room temperature for 5 min. After the incubation, the luminescence in each well was measured using a luminometer.
The calculation formula for cell viability: Percent cell viability (%) = I(sample)/(I(vehicle) × 100 [formula]
I(sample) represents the fluorescence intensity of the sample, and I(vehicle) represents the fluorescence intensity of 0.1% DMSO to cells.

CO[C@H]1/C=C/O[C@@]2(C)Oc3c(C)c(O)c4c(O)c(c(/C=N/N5CCN(C)CC5)c(O)c4c3C2=O)NC(=O)/C(C)=C\C=C\[C@H](C)[C@H](O)[C@@H](C)[C@@H](O)[C@@H](C)[C@H](OC(C)=O)[C@@H]1C [Rifampicin, reference compound]
Cell viability (%) (compound concentration 0.0195 µM): 103.39%
Cell viability (%) (compound concentration 20.0 µM): 93.07%
